The numbers were not newly measured in US20260014083A1, “Orally Administrable Pharmaceutical Dosage Form Comprising Lanthanum and Its Use in a Method Of Treatment of Hyperoxaluria” (AMGMT, priority 2022, published 2026), which cites them from elsewhere.

The subject of one data set is rat. As to conditions: oxalate loading.
For data set [1] the following is noted: in vivo.
In data set [2] the test system is patients with enteric hyperoxaluria.

Where two headings read alike, the source gives them in different places.

`O=C([O-])[O-].O=C([O-])[O-].O=C([O-])[O-].[La+3].[La+3]` [Lanthanum carbonate, lanthanum carbonate]: in the data set on rat, the CaOx crystalluria entry is recorded as “decrease”, the calciuria result was “minor increase”, the oxaluria result was “decrease” and the phosphaturia result is reported as “striking increase”.
Regarding `[Al]` [aluminum], the calciuria result (in vivo) is “increased calciuria”.
On to `O=C([O-])[O-].[Ca+2]` [calcium carbonate], for which the calciuria result (current powerful phosphate binders) is given as “increased calciuria”.
Regarding `[La]` [lanthanum], the gastro-intestinal absorption in data set [1] is on record as 0.01%.

B1: reloxaliase: an oral enzyme therapeutic (Allena Pharmaceuticals) (protein, UniProt O34714 1-385, looked up)
Oxalate decarboxylase OxdC: MKKQNDIPQPIRGDKGATVKIPRNIERDRQNPDMLVPPETDHGTVSNMKFSFSDTHNRLEKGGYAREVTVRELPISENLASVNMRLKPGAIRELHWHKEAEWAYMIYGSARVTIVDEKGRSFIDDVGEGDLWYFPSGLPHSIQALEEGAEFLLVFDDGSFSENSTFQLTDWLAHTPKEVIAANFGVTKEEISNLPGKEKYIFENQLPGSLKDDIVEGPNGEVPYPFTYRLLEQEPIESEGGKVYIADSTNFKVSKTIASALVTVEPGAMRELHWHPNTHEWQYYISGKARMTVFASDGHARTFNYQAGDVGYVPFAMGHYVENIGDEPLVFLEIFKDDHYADVSLNQWLAMLPETFVQAHLDLGKDFTDVLSKEKHPVVKKKCSK
modifications: crosslinked enzyme crystals
With B1, in data set [2] (versus placebo, p=0.004), the “least square mean treatment difference” value is reported as −14.3%. Besides, the “mean reduction in average 24-hour urinary oxalate excretion” value in data set [2] (weeks 1-4, placebo 9.7%) was 22.6%.
